Assay results from ChEMBL document CHEMBL1201862, “PubChem BioAssay data set” (2004).
Calls of active or inactive are those of the source.

Legend:
Cytochrome P450 3A4 = Cytochrome P450 3A4 (Homo sapiens, UniProt P08684);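 note: CYP3A4 tested as one member of a cytochrome P450 panel screen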
Cytochrome P450 2C19 = Cytochrome P450 2C19 (Homo sapiens, UniProt P33261); assay: Cytochrome panel assay with activity outcomes. Panel member name: p450-cyp2c19 Compounds with AC50 equal or less than 10 uM are considered active; type: functional
Sequence of Cytochrome P450 2C19 (P33261 whole entry): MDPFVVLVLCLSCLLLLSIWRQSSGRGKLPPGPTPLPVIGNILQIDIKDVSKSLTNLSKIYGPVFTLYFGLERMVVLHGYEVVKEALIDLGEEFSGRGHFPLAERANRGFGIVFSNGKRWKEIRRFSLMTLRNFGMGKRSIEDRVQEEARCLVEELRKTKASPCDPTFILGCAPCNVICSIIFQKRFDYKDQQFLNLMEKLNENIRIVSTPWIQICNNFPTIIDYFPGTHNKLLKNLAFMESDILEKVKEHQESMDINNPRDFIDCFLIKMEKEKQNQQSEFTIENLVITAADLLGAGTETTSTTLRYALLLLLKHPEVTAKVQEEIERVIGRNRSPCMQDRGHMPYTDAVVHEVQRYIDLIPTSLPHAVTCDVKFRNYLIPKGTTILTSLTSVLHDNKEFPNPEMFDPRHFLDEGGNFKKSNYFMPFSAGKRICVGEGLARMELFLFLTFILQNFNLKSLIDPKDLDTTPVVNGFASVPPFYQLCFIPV

Cytochrome P450 2C9 = Cytochrome P450 2C9 (Homo sapiens, UniProt P11712)
Sequence of Cytochrome P450 2C9 (P11712 whole entry): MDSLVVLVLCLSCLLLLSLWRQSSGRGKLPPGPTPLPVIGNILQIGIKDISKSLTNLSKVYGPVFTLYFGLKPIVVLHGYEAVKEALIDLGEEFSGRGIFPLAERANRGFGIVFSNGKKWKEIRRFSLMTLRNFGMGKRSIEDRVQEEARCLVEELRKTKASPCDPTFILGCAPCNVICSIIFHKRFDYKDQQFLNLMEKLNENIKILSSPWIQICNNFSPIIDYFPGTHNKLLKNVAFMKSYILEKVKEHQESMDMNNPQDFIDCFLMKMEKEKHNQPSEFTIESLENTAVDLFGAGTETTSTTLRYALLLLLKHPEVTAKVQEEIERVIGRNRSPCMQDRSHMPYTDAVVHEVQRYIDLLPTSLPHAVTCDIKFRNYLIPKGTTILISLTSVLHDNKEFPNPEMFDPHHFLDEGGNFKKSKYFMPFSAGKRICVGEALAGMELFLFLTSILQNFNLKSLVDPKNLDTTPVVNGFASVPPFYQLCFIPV

[1] = Luminescence Cell-Based Dose Response HTS to Identify Inhibitors of 5'UTR Stem-Loop Driven Prion Protein mRNA Translation in H4 Neuroglioblastoma Cells. [Related pubchem assays: 1827 (Project Summary), 1813 (Primary HTS)]; type: functional
[2] = inhibitors of SNCA 5'UTR-driven reporter translation, confirmation, H4 neuroglioma cells, luminescence (AID 1988); type: functional, cell-based
[3] = inhibitors of firefly luciferase expression or activity, dose response, H4 neuroglioma cells, luminescence (AID 1990); type: functional, cell-based
Cytochrome P450 2D6 = Cytochrome P450 2D6 (Homo sapiens, UniProt P10635);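 note: CYP2D6 member of a cytochrome P450 panel assay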
Sequence of Cytochrome P450 2D6 (P10635 whole entry): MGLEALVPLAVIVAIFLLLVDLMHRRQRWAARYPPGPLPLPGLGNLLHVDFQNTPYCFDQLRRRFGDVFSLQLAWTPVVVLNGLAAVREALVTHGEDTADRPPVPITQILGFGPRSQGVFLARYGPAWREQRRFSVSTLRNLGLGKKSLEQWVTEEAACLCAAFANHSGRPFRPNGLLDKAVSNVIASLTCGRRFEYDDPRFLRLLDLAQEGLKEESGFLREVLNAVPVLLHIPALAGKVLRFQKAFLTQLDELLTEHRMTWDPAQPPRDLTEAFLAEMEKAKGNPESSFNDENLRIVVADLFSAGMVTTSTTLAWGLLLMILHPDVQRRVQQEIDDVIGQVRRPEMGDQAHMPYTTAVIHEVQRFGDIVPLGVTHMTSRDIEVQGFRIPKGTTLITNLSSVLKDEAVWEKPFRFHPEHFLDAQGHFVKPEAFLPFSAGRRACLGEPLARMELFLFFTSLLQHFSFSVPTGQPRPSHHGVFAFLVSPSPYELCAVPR

Sequence of Cytochrome P450 3A4 (P08684 whole entry): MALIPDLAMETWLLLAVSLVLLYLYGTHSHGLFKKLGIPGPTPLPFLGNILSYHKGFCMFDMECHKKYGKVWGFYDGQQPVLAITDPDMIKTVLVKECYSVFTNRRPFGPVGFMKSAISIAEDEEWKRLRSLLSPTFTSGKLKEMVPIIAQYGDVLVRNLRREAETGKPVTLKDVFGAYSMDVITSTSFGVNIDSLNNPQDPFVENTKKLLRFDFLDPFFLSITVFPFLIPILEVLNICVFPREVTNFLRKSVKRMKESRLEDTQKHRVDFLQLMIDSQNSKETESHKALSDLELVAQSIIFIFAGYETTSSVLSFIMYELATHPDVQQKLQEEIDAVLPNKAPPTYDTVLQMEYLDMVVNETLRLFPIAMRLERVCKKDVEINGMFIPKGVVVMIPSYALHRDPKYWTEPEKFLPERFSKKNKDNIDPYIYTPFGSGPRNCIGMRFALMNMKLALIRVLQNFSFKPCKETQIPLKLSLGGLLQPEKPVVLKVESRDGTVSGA

SMILES | AC50 (Cytochrome P450 3A4) | AC50 (Cytochrome P450 2C9) | also measured
Cc1cnn(-c2ccc3nnc(-c4ccc(Cl)cc4)n3n2)c1 | 1.12 µM (inconclusive) | 6.31 µM (inconclusive) | AC50 (Cytochrome P450 2C19; read-out: AC50): 1.41 µM (inconclusive)
CCCC(=O)Nc1nnc(Cc2ccccc2)s1 | 15.8 µM (inconclusive) | 10 µM (inconclusive) | –
CC1=CC2=NC(=O)CC(C)(C(=O)N(CC(=O)NC(C)(C)C)Cc3cccs3)N2C=C1 (stereo unspecified) | – | 25.1 µM (inconclusive) | –
COCCn1c(=O)cnc2cnc(Oc3ccccc3)nc21 | 25.1 µM (inconclusive) | – | –
COc1ccc(O[C@H]2C=C[C@@H](c3ccccc3)O[C@@H]2CO/N=C(\C)CCN2CCCCc3nc(C)c(C)cc32)cc1 | – | 6.31 µM (inconclusive) | –
COC(=O)/C=C/c1ccccc1S(=O)(=O)N(Cc1ccccc1)Cc1ccco1 | – | – | EC50 [1]: 9.84 µM (active); EC50 [2]: 5.96 µM (active); EC50 [3]: 8.38 µM (inconclusive)
CN(C)S(=O)(=O)c1ccc(Nc2ccc(O)c3c2C(=O)c2c([N+](=O)[O-])ccc(O)c2C3=O)cc1 | 3.98 µM (inconclusive) | 3.16 µM (inconclusive) | AC50 (Cytochrome P450 2D6): 0.794 µM (inconclusive)
COCCNC(=O)[C@H](C)[C@@H]1C[C@@]1(C)[C@@H](NC(=O)OCc1ccccc1)c1ccccc1 | – | 31.6 µM (inconclusive) | –
Cc1ccc(S(=O)(=O)c2cc(N3CCOCC3)nc(-c3ccccc3)n2)cc1 | – | 11.2 µM (inconclusive) | –
COc1cc(-c2c(C#N)c(N)nc3c2CCCC3)cc(OC)c1OC | – | – | EC50 [1]: 17.1 µM (active); EC50 [2]: 19.7 µM (active); EC50 [3]: 27.4 µM (active)
O=C(Nc1ccc(Oc2ncnc3cc(Cl)ccc23)nc1)c1cccs1 | – | – | EC50 [1]: > 120 µM (not active); EC50 [2]: > 120 µM (not active); EC50 [3]: > 120 µM (not active)
Cc1cnc(CNc2ncncc2-c2ccccc2C(F)(F)F)cn1 | 0.2 µM (inconclusive) | – | AC50 (Cytochrome P450 2C19; read-out: AC50): 39.8 µM (inconclusive)
N#CC(C#N)=NNc1ccc2cn[nH]c2c1 | 1.58 µM (inconclusive) | – | AC50 (Cytochrome P450 2C19; read-out: AC50): 3.16 µM (inconclusive)
COc1ccc2cc3cc(C(=O)NCc4ccccn4)oc3nc2c1 | 39.8 µM (inconclusive) | – | AC50 (Cytochrome P450 2D6): 39.8 µM (inconclusive)
Cc1cc(=O)oc(C)c1C(=O)Nc1ccc(Cl)cn1 | – | 20 µM (inconclusive) | AC50 (Cytochrome P450 2C19; read-out: AC50): 2.24 µM (inconclusive)
O=C(NCc1ccc(F)cc1)C(c1ccncc1)N(C(=O)c1csnn1)C1CC1 (stereo unspecified) | – | 8.91 µM (inconclusive) | AC50 (Cytochrome P450 2D6): 11.2 µM (inconclusive)
O=C(Nc1ccc(F)cc1Cl)c1ccc2c(=O)n3c(nc2c1)CCCCC3 | 4.47 µM (inconclusive) | – | AC50 (Cytochrome P450 2C19; read-out: AC50): 3.98 µM (inconclusive)
COC(=O)c1nn(C23CC4CC(CC(C4)C2)C3)c2c1C(=O)N(c1ccc(F)cc1)C2=O | – | 12.6 µM (inconclusive) | AC50 (Cytochrome P450 2C19; read-out: AC50): 39.8 µM (inconclusive)
Cc1nnc(-c2cccc(Br)c2)c2cn(-c3ccccc3Cl)nc12 | 39.8 µM (inconclusive) | – | AC50 (Cytochrome P450 2D6): 28.2 µM (inconclusive)
COCC(=O)N1CCC2(CCCN(C(=O)Nc3ccc(OC)cc3)C2)CC1 | 39.8 µM (inconclusive) | – | AC50 (Cytochrome P450 2C19): inconclusive
O=C(Nc1ccc(-n2nncc2-c2ccco2)cc1)c1ccc(F)cc1 | – | 11.2 µM (inconclusive) | –
CSc1nc(NCc2ccco2)c2sc3nc(C(C)C)c4c(c3c2n1)CC(C)(C)OC4 | – | – | EC50 [1]: > 120 µM (not active); EC50 [2]: > 120 µM (not active); EC50 [3]: 27.5 µM (active)
Cn1c(=O)c2c(-c3cccc(F)c3)c3c(nc2n(C)c1=O)-c1ccccc1C3O (stereo unspecified) | 22.4 µM (inconclusive) | 2.82 µM (inconclusive) | AC50 (Cytochrome P450 2D6): 79.4 µM (inconclusive)
Cc1c(N2C(=O)CS/C2=N\N=C\c2ccc(Cl)cc2)c(=O)n(-c2ccccc2)n1C | 28.2 µM (inconclusive) | 31.6 µM (inconclusive) | AC50 (Cytochrome P450 2C19; read-out: AC50): 39.8 µM (inconclusive)
CCCC1S/C(=N/N=C/c2ccc(OC)cc2)N(Cc2ccc(OC)cc2)C1=O (stereo unspecified) | 1 µM (inconclusive) | – | –
